Reference: patent US20240165273A1, “SELF-ASSEMBLING MOLECULES ENABLING HIGH PERFORMANCE IN VIVO IMAGING IN THE SECOND NEAR INFRARED (NIR-II) WINDOW” (Baylor College of Medicine, priority 2022, published 2024)
Entries after “also recorded” stand apart in the source; their conditions may differ.

How the values were obtained:
[1] = Photostability under continuous laser excitation in PBS and bovine plasma; format: physicochemical
[2] = Optical properties (absorption, emission, quantum yield, solution) in PBS; format: physicochemical; settings: PBS (50 μM)
[3] = in 20 minutes post-intravenous injection; cited from earlier work
[4] = in PBS; cited from earlier work
serum albumin = serum albumin (Homo sapiens, UniProt P02768); settings: binding with serum albumin in solution; cited from earlier work
Sequence of serum albumin (P02768 25-609): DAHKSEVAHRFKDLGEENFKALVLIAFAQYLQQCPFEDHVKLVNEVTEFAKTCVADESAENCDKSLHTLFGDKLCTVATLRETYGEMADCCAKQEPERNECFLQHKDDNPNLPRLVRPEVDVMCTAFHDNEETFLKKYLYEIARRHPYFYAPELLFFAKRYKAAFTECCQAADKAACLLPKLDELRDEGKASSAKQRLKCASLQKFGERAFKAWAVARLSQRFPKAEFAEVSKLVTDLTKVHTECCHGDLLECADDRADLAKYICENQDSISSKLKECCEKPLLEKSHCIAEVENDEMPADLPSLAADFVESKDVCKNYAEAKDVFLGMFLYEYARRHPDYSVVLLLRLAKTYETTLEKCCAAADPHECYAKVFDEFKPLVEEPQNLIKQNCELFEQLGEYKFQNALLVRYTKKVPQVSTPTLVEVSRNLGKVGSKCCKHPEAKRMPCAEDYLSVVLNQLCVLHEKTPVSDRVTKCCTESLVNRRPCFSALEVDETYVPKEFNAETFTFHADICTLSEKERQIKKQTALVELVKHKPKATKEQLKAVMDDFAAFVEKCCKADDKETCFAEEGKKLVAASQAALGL

HPV-positive mEER tumor = experiment: In vivo NIR-II tumor imaging, mEER tumor model; set-up: species or system mouse; settings: mEER tumor bearing mice, i.v., 5 mg/kg or similar dose
From the text: (§1) Applicants hypothesized that intravenous administration of NIR-II dyes such as XW-03-66, has the potential to accumulate in these tumors via the EPR effect, thus enabling NIR-II image-guided intraoperative resection with improved adequate margin delineation. To test this hypothesis, two different syngeneic murine models of head and neck squamous cell carcinoma were used: (1) the human papillomavirus (HPV)-positive mEER tumor model, featuring murine pharyngeal epithelial cells transformed with HPV16 E6 and E7 oncogenes and H-ras, and (2) HPV-ve, the carcinogen induced Mouse Oral Cancer 2 (MOC2) tumor model.
(§2) Test mice (n=4 for each model) were first subjected to preoperative MRI scans to establish presence of the tumor. Following MRI confirmation, tumor-bearing mice were administered XW-03-66 (dose=5 mg/kg) by tail vein injection. For comparison, a similar number of mice with MRI-confirmed tumors were injected with clinically approved ICG at a similar dose. To monitor dynamics of tumor uptake, NIR-II images were collected at different time intervals over a period of seven days.

[5] = system: Mouse Oral Cancer 2 (MOC2) tumor; experiment: In vivo NIR-II tumor imaging, MOC2 tumor model
From the text: as §1, §2

CC1(C)C(/C=C/C=C/C=C/C=C2\N(CCCCS(=O)(=O)O)c3ccc4ccccc4c3C2(C)C)=[N+](CCCCS(=O)(=O)[O-])c2ccc3ccccc3c21 [ICG, indocyanine green]
time of drop in fluorescence to baseline [1]: ≤ 30 min | dissolution in PBS [2]: dissolve in PBS resulting in clear solutions | fraction removed from circulation via the liver [3]: 97% | NIR-II QY [4]: 0.042% | factor of fluorescence increase compared to solution in PBS (serum albumin): 23 | NIR-II tumor signal (HPV-positive mEER tumor): no signal uptake in either tumor model; also recorded: faint tumor signals at 1-2 h, and no apparent signal thereafter | NIR-II tumor signal ([5]; MOC2 tumor bearing mice, i.v., 5 mg/kg or similar dose, 5 mg/kg): no signal uptake in either tumor model; also recorded: faint tumor signal at 1-2 h, and no apparent signal thereafter | liver signal ([5]; tumor-bearing mice, model not distinguished): observed in the liver in images captured within the first four hours, but completely disappeared thereafter
